Some test systems named below: T47D; A498; BT-549; RXF 393; PC-3; ACHN; K562; HOP-92; Hs-578T; UACC-257; HCT-116; MCF7; NCI/ADR-RES; SF-539; CAKI-1; CCRF-CEM; DU-145; HCT-15; UO-31; HCC 2998.
Assay in all cases: growth of human tumour cells (NCI), 48 h

Structures are written as SMILES.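 The compound was tested at five concentrations on cells cultured in 96-well plates, with a 48-hour exposure period. At the GI50, growth is halved.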 Active and inactive are the calls of the source. Cut-off read from the data, not from the text of the source: active = GI50 up to about 1.1 µM and inactive = higher. Square brackets hold non-standard residues; d marks the D form. Peptide text beside a SMILES is read from it. * marks the point of attachment. Tyr(3-Br) = N[C@@H](Cc1ccc(O)c(Br)c1)C(=O)O; Boc = CC(C)(C)OC(=O)*

Regarding `Cn1c(=O)c2nc(CCS)[nH]c2n(C)c1=O`, the GI50 with T47D was > 100 µM (inactive); in the assay with A498 it was > 100 µM (inactive); with BT-549, > 100 µM (inactive); in the assay with RXF 393, 90.6 µM (inactive); in the assay on PC-3, > 100 µM (inactive); in the assay with ACHN it was > 100 µM (inactive). Further, the GI50 is > 100 µM (inactive) with K562; > 100 µM (inactive) in the assay on HOP-92; 31.4 µM (inactive) in the assay on Hs-578T; > 100 µM (inactive) with UACC-257; > 100 µM (inactive) with HCT-116; > 100 µM (inactive) in the assay on MCF7. For the same molecule, the GI50 in the assay on NCI/ADR-RES is > 100 µM (inactive); with SF-539, 74.8 µM (inactive); with CAKI-1, > 100 µM (inactive); in the assay with CCRF-CEM, 55 µM (inactive); in the assay with DU-145 it was > 100 µM (inactive); in the assay with HCT-15, greater than 100 µM. In addition, in the assay with UO-31, the GI50 is > 100 µM (inactive).

Consider `CC(C)NC1(C(N)=O)CCN(Cc2ccccc2)CC1`, for which the GI50 in the assay with T47D, in the assay on A498, with BT-549, in the assay on RXF 393, with PC-3 and in the assay with ACHN was > 100 µM (inactive) each time. Moreover, the GI50 in the assay on K562, in the assay with HOP-92, in the assay on Hs-578T, in the assay with UACC-257, in the assay with HCT-116 and with MCF7 was > 100 µM (inactive) in each case. Moreover, the GI50 in the assay on NCI/ADR-RES is > 100 µM (inactive); in the assay on SF-539, > 100 µM (inactive); in the assay with CAKI-1, > 100 µM (inactive); with DU-145, > 100 µM (inactive); in the assay on HCT-15 it was greater than 100 µM; in the assay with UO-31, > 100 µM (inactive).

For the molecule `CC1=CC2C(C(C)C)CC1C1C(=O)OC(=O)C21` (configuration not stated), the GI50 in the assay with T47D is 49.8 µM (inactive); in the assay on A498 it was > 100 µM (inactive); in the assay on BT-549, 84.1 µM (inactive); in the assay on RXF 393, > 100 µM (inactive); in the assay on PC-3, 76.6 µM (inactive); in the assay on ACHN, > 100 µM (inactive). The GI50 is 39.7 µM (inactive) in the assay on K562; 65.5 µM (inactive) in the assay on HOP-92; 75.3 µM (inactive) with Hs-578T; > 100 µM (inactive) with UACC-257; 76.7 µM (inactive) in the assay on HCT-116; > 100 µM (inactive) in the assay with MCF7. Besides, the GI50 in the assay with NCI/ADR-RES was 77.3 µM (inactive); with SF-539, > 100 µM (inactive); with DU-145, > 100 µM (inactive); in the assay on HCT-15, 58.2 µM; in the assay with HCC 2998, 30.9 µM (inactive); with UO-31, > 100 µM (inactive).

In the case of `Clc1c(Cl)c(Cl)c2nn(C3CCCO3)nc2c1Cl` (configuration not stated), the GI50 is 37 µM (inactive) in the assay with T47D; > 100 µM (inactive) in the assay with A498; 26.8 µM (inactive) in the assay on BT-549; > 100 µM (inactive) in the assay on RXF 393; 82 µM (inactive) in the assay on PC-3; 40.7 µM (inactive) in the assay on K562. In addition, the GI50 was 11.7 µM (inactive) with Hs-578T; 72.6 µM (inactive) in the assay on UACC-257; 50.6 µM (inactive) in the assay with HCT-116; 46.3 µM (inactive) in the assay with MCF7; 42.8 µM (inactive) in the assay with NCI/ADR-RES; 86.9 µM (inactive) in the assay with SF-539. For the same molecule, the GI50 in the assay on CAKI-1 was 80.4 µM (inactive); in the assay with CCRF-CEM, 82.2 µM (inactive); in the assay on DU-145, > 100 µM (inactive); in the assay with HCC 2998, 91 µM (inactive).

On to `COC1=C(OC)C(=O)C(Cc2c(Cl)nc3sc(C)cn23)=C(C)C1=O`, for which the GI50 in the assay with T47D was 23.9 µM (inactive); with A498, 22.9 µM (inactive); with BT-549, 18 µM (inactive); in the assay on RXF 393, 20.3 µM (inactive); with PC-3, 16 µM (inactive); in the assay on ACHN, 17.1 µM (inactive). Also, the GI50 in the assay with K562 was 11.9 µM (inactive); in the assay on Hs-578T it was 19.7 µM (inactive); with UACC-257 it was 10.4 µM (inactive); in the assay on HCT-116 it was 23 µM (inactive); in the assay with MCF7 it was 19.5 µM (inactive); in the assay on NCI/ADR-RES it was 14.6 µM (inactive). For the same molecule, the GI50 is 19 µM (inactive) in the assay on SF-539; 24.5 µM (inactive) with CAKI-1; 3.02 µM (inactive) with CCRF-CEM; 22.1 µM (inactive) in the assay with DU-145; 24.9 µM in the assay with HCT-15; 17.2 µM (inactive) with HCC 2998. The GI50 with UO-31 was 17.1 µM (inactive).

Take `O=C(O)CN(CC(=O)O)C1CCCCC1N1CC(=O)OC(=O)C1` (configuration not stated): the GI50 in the assay with T47D is 51.3 µM (inactive); in the assay with A498 it was > 100 µM (inactive); with BT-549, > 100 µM (inactive); in the assay with PC-3, > 100 µM (inactive); in the assay on ACHN, > 100 µM (inactive); in the assay with K562 it was 71.8 µM (inactive). Further, the GI50 in the assay on HOP-92 is > 100 µM (inactive); in the assay on Hs-578T, 47.1 µM (inactive); in the assay on UACC-257, > 100 µM (inactive); with HCT-116, > 100 µM (inactive); in the assay with MCF7, 69.3 µM (inactive); in the assay on NCI/ADR-RES, > 100 µM (inactive). The GI50 in the assay with SF-539 was > 100 µM (inactive); with CAKI-1 it was > 100 µM (inactive); in the assay with CCRF-CEM, > 100 µM (inactive); in the assay on DU-145, > 100 µM (inactive); in the assay on HCT-15 it was 95.9 µM; in the assay on HCC 2998, 74.3 µM (inactive). In the assay on UO-31, the GI50 is > 100 µM (inactive).

As for `COc1cc(S(=O)(=O)N/N=C/C=C/c2ccccc2)c(OC)cc1NC(C)=O`, the GI50 with T47D is 69.5 µM (inactive); with A498 it was > 100 µM (inactive); in the assay on BT-549, 42.1 µM (inactive); in the assay with RXF 393, 21.1 µM (inactive); in the assay on PC-3 it was 77.8 µM (inactive); in the assay on ACHN, > 100 µM (inactive). The GI50 is 30.3 µM (inactive) in the assay on HOP-92; 26.4 µM (inactive) with Hs-578T; 30.2 µM (inactive) in the assay with UACC-257; 91.2 µM (inactive) in the assay on HCT-116; 52.2 µM (inactive) in the assay on MCF7; 9.59 µM (inactive) with NCI/ADR-RES. In addition, the GI50 was 5.26 µM (inactive) in the assay with SF-539; 16 µM (inactive) with CAKI-1; 69.5 µM (inactive) in the assay with CCRF-CEM; 31.8 µM (inactive) in the assay with DU-145; 19.5 µM in the assay on HCT-15; 42.9 µM (inactive) in the assay with UO-31.

Turning to `COc1ccccc1N1C(=O)C2C3c4ccccc4C(OC(C)=O)(c4ccccc43)C2C1=O` (configuration not stated), the GI50 was > 100 µM (inactive) in the assay with T47D; > 100 µM (inactive) in the assay with A498; 49.9 µM (inactive) with BT-549; > 100 µM (inactive) in the assay on RXF 393; > 100 µM (inactive) with PC-3; > 100 µM (inactive) in the assay with ACHN. Also, the GI50 is > 100 µM (inactive) in the assay on K562; 14.8 µM (inactive) in the assay on Hs-578T; > 100 µM (inactive) with UACC-257; 57.3 µM (inactive) in the assay with HCT-116; 72.3 µM (inactive) in the assay with MCF7; > 100 µM (inactive) in the assay with NCI/ADR-RES. In addition, the GI50 is 72.1 µM (inactive) in the assay on SF-539; > 100 µM (inactive) in the assay on CAKI-1; > 100 µM (inactive) with CCRF-CEM; > 100 µM (inactive) with DU-145; greater than 100 µM in the assay on HCT-15; > 100 µM (inactive) with HCC 2998. In addition, the GI50 in the assay on UO-31 is > 100 µM (inactive).

`CC1(C)OCC2OC3(c4nc(C#N)c(N)o4)OC(C)(C)OC3C2O1` (configuration not stated): the GI50 with T47D was > 100 µM (inactive); with A498 it was > 100 µM (inactive); in the assay on BT-549 it was > 100 µM (inactive); in the assay on PC-3, > 100 µM (inactive); with ACHN it was > 100 µM (inactive); in the assay on K562, > 53.3 µM (inactive). In addition, the GI50 in the assay on HOP-92, in the assay with Hs-578T, in the assay with UACC-257, in the assay on HCT-116, with MCF7 and with NCI/ADR-RES was > 100 µM (inactive) in each case. Also, the GI50 in the assay on SF-539 was > 100 µM (inactive); in the assay on CAKI-1 it was > 100 µM (inactive); with CCRF-CEM, > 100 µM (inactive); in the assay with DU-145, > 100 µM (inactive); with HCT-15, greater than 100 µM; with HCC 2998, > 100 µM (inactive). Also, the GI50 in the assay on UO-31 is > 100 µM (inactive).

In the case of `C/C(=N\Nc1nc2ccccc2o1)c1ccc2ccccc2n1`, the GI50 was 0.279 µM (active) in the assay on T47D; 2.55 µM (inactive) with A498; 20.7 µM (inactive) in the assay with BT-549; 18.5 µM (inactive) with RXF 393; 1.83 µM (inactive) in the assay on PC-3; 1.47 µM (inactive) in the assay with ACHN. For the same molecule, the GI50 in the assay on K562 was 3.67 µM (inactive); in the assay on Hs-578T, 27.4 µM (inactive); in the assay on UACC-257, 6.71 µM (inactive); with HCT-116, 2.55 µM (inactive); in the assay with MCF7, 6.12 µM (inactive); in the assay on NCI/ADR-RES, 3.22 µM (inactive). For the same molecule, the GI50 in the assay with SF-539 is 7.36 µM (inactive); with CAKI-1, 1 µM (active); in the assay with CCRF-CEM, 2.04 µM (inactive); in the assay on DU-145, 4.41 µM (inactive); in the assay with HCT-15, 1.08 µM; in the assay on UO-31, 2.09 µM (inactive).

Regarding `COC(=O)[C@H](Cc1ccc(O)c(Br)c1)NC(=O)[C@H](Cc1ccc(O)cc1)NC(=O)OC(C)(C)C` (Boc-Tyr-[Tyr(3-Br)]-OMe), the GI50 in the assay on T47D was 20.8 µM (inactive); in the assay on A498, > 100 µM (inactive); in the assay on BT-549, 35.2 µM (inactive); in the assay with PC-3 it was > 100 µM (inactive); in the assay on ACHN it was 37.3 µM (inactive); in the assay on K562, > 100 µM (inactive). Besides, the GI50 with HOP-92 is 28.6 µM (inactive); in the assay on Hs-578T, > 100 µM (inactive); in the assay on UACC-257, 43.8 µM (inactive); in the assay with HCT-116, 45.6 µM (inactive); with MCF7, 31.3 µM (inactive); with NCI/ADR-RES, > 100 µM (inactive). For the same molecule, the GI50 is 28.7 µM (inactive) with SF-539; > 100 µM (inactive) with CAKI-1; 23.8 µM (inactive) in the assay with CCRF-CEM; 61.9 µM (inactive) in the assay on DU-145; 21.6 µM in the assay on HCT-15; 31.6 µM (inactive) in the assay with HCC 2998. In addition, the GI50 with UO-31 is 29 µM (inactive).

Source of the values: ChEMBL document CHEMBL1201862, “PubChem BioAssay data set” (2004).
